Measurements taken from patent US20160311788A1, “Antifouling Compounds And Use Thereof” (National University of Singapore, priority 2008, published 2016).

Experiments:
[1] = system: marine bacteria strain S1; assay: disc inhibition assay, strain S1; format: cell-based, Rhodovulum iodosum; details: Rhodovulum iodosum, S1
Procedure, shortened: (§1)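 Compounds were applied at 50 μg per 6 mm disc (from 2 mg/ml DMSO stock; DMSO control) onto lawns of Singapore coastal fouling bacteria on marine agar. After overnight incubation in the dark at 35 °C, inhibition-zone diameters were caliper-measured; mean of two replicates.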

[2] = system: marine bacteria strain S3; assay: disc inhibition assay, strain S3; format: cell-based, Erythrobacter aquimaris
Procedure, shortened: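 Disc inhibition assay against a marine bacterial strain isolated from fouling communities in Singapore coastal waters. The strain was grown in marine broth and swabbed over Marine Agar plates as a lawn. 6 mm sterile discs loaded with compound in DMSO, or DMSO controls, were placed on the plates and incubated overnight in the dark at 35° C.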

[3] = system: marine bacteria strain S4; assay: disc inhibition assay, strain S4; format: cell-based, Bacillus algicola; details: Guptibacillus algicola, S4, 24 h
Procedure, shortened: as §1

[4] = system: marine bacteria strain S9; assay: disc inhibition assay, strain S9; format: cell-based, Bacillus algicola; details: Guptibacillus algicola, S9, 24 h
Procedure, shortened: as §1

[5] = system: marine bacteria strain S10; assay: disc inhibition assay, strain S10; format: cell-based, Halobacillus trueperi; details: Halobacillus trueperi, S10, 24 h
Procedure, shortened: as §1

[6] = system: marine bacteria strain S14; assay: disc inhibition assay, strain S14; format: cell-based, Vibrio probioticus; details: Vibrio, S14, 24 h
[7] = system: marine bacteria strain S16; assay: disc inhibition assay, strain S16; format: cell-based, Pseudoalteromonas piscicida; details: Pseudoalteromonas piscicida, S16, 24 h
Procedure, shortened: as §1

[8] = system: marine bacteria strain S17; assay: disc inhibition assay, strain S17; format: cell-based, Gordonia terrae
Procedure, shortened: as §1

[9] = system: marine bacteria strain S18; assay: disc inhibition assay, strain S18; format: cell-based, Microbacterium esteraromaticum; details: Microbacterium esteraromaticum, S18, 24 h
[10] = system: marine bacteria strain S27; assay: disc inhibition assay, strain S27; format: cell-based, Tenacibaculum lutimaris; details: Tenacibaculum lutimaris, S27, 24 h
Procedure, shortened: as §1

[11] = system: marine bacteria strain S28; assay: disc inhibition assay, strain S28; format: cell-based, Arthrobacter protophormial; details: Arthrobacter, S28, 24 h
Procedure, shortened: as §1

[12] = system: marine bacteria strain S29; assay: disc inhibition assay, strain S29; format: cell-based, Bacillus hwajinpoensis; details: Guptibacillus hwajinpoensis, S29, 24 h
Procedure, shortened: as §1

[13] = system: marine bacteria strain S30; assay: disc inhibition assay, strain S30; format: cell-based, Bacillus borophilicus; details: Bacillus, S30, 24 h
Procedure, shortened: as §1

[14] = system: Escherichia coli (Strain K12; ATCC 15222); assay: disc inhibition assay, REF 1; format: cell-based
Procedure: (§2) 13 strains of marine bacteria were isolated from fouling communities located in the coastal waters around Singapore. These were characterized in earlier studies and reported in Teo et al. (U.S. patent application Ser. No. 11/265,833) and Choong et al (in prep). In addition, four reference bacterial strains were added tested: Escherichia coli (Strain K12, ATCC 15222), E. coli (strain DH5a), Pseudomonas aeruginosa (strain LMG 12228; ATCC 15692) and P. putida (strain KT2440; ATCC 47054). All the bacteria were also tested against five antibiotics: ampicillin (AMP), tetracycline (TETR), erythromycin (ERY), chloramphenicol (CHL) and streptomycin (STREP).
(§3) Disks comprising the compounds to be tested were prepared as follows. The antibacterial assay, the pure compounds were made up to a concentration of 2 mgml^−1 in DMSO. 25 μl of the stock was pipetted onto each 6 mm sterile disc (Macherey-Nagel #484000) to obtain 50 μg of compound per disc. Equivalent volume of DMSO was used inoculated for the control.
(§4) For all disk inhibition assays, bacterial cultures were grown in marine broth (Pronadisa #1217.00). Sterile swabs dipped into the cultures were used to inoculate Marine Agar plates with a bacterial lawn by smearing the culture over the surface. After inoculating the plates, discs with antibiotics, pharmaceuticals or control blanks were placed on each plate. Each concentration of antibiotic or pharmaceutical was tested with two replicates. After the disks were placed on the agar surface, plates were incubated overnight in the dark at 35° C. After incubation, plates were examined for zones of inhibition or clearing around control and treated disks. The diameter of any zone of clearing or inhibition was measured using Vernier calipers. There were two replicates per treatment, and the average was taken. There was no zone of inhibition around the control blanks in all the assays.

[15] = system: Escherichia coli (Strain DH5a); assay: disc inhibition assay, REF 2; format: cell-based
Procedure: as §2, §3, §4

[16] = system: Pseudomonas aeruginosa (strain LMG 12228; ATCC 15692); assay: disc inhibition assay, REF 3; format: cell-based
Procedure: as §2, §3, §4

[17] = system: Pseudomonas putida (Strain KT2440; BCRC 10459); assay: disc inhibition assay, REF 4; format: cell-based
Procedure: as §2, §3, §4

CC1(C)S[C@@H]2[C@H](NC(=O)[C@H](N)c3ccccc3)C(=O)N2[C@H]1C(=O)O [AMP, Ampicillin, reference compound] was tested, and the zone of inhibition at 2 µg/disc ([1]; strain 1, 2 ug) was 5 to 10 mm, the zone of inhibition at 10 µg/disc ([1]; strain 1, 10 ug) was 5 to 10 mm and the zone of inhibition ([2]; strain 3, 2 ug) was “−”. The zone of inhibition ([2]; strain 3, 10 ug) was “−”, the zone of inhibition at 2 µg/disc ([3]; strain 4, 2 ug) was > 10 mm and the zone of inhibition at 10 µg/disc ([3]; strain 4, 10 ug) was > 10 mm. The zone of inhibition at 2 µg/disc ([4]; strain 9, 2 ug) was 2 to 5 mm, the zone of inhibition at 10 µg/disc ([4]; strain 9, 10 ug) was > 10 mm and the zone of inhibition at 2 µg/disc ([5]; strain 10, 2 ug) was > 10 mm. For the same compound, the zone of inhibition at 10 µg/disc ([5]; strain 10, 10 ug) was > 10 mm, the zone of inhibition at 2 µg/disc [6] was 2 to 5 mm and the zone of inhibition at 10 µg/disc [6] was 2 to 5 mm. For the same compound, the zone of inhibition at 2 µg/disc ([7]; strain 16, 2 ug) was 2 to 5 mm, the zone of inhibition at 10 µg/disc ([7]; strain 16, 10 ug) was 2 to 5 mm and the zone of inhibition ([8]; strain 17, 2 ug) was “−”. For the same compound, the zone of inhibition ([8]; strain 17, 10 ug) was “−”, the zone of inhibition at 2 µg/disc ([9]; strain 18, 2 ug) was 2 to 5 mm and the zone of inhibition at 10 µg/disc ([9]; strain 18, 10 ug) was 5 to 10 mm. For the same compound, the zone of inhibition at 2 µg/disc ([10]; strain 27, 2 ug) was 5 to 10 mm, the zone of inhibition at 10 µg/disc ([10]; strain 27, 10 ug) was > 10 mm and the zone of inhibition at 2 µg/disc ([11]; strain 28, 2 ug) was 2 to 5 mm. For the same compound, the zone of inhibition at 10 µg/disc ([11]; strain 28, 10 ug) was 5 to 10 mm, the zone of inhibition at 2 µg/disc ([12]; strain 29, 2 ug) was > 10 mm and the zone of inhibition at 10 µg/disc ([12]; strain 29, 10 ug) was > 10 mm. For the same compound, the zone of inhibition at 2 µg/disc ([13]; strain 30, 2 ug) was > 10 mm, the zone of inhibition at 10 µg/disc ([13]; strain 30, 10 ug) was > 10 mm and the zone of inhibition ([14]; REF 1, 2 ug) was “−”. The zone of inhibition ([14]; REF 1, 10 ug) was “+ (2-5 mm zone of inhibition around each disk was observed.)”, the zone of inhibition ([15]; REF 2, 2 ug) was “−” and the zone of inhibition ([15]; REF 2, 10 ug) was “+ (2-5 mm zone of inhibition around each disk was observed.)”. The zone of inhibition ([16]; REF 3, 2 ug) was “−”, the zone of inhibition ([16]; REF 3, 10 ug) was “−” and the zone of inhibition ([17]; REF 4, 2 ug) was “−”. For the same compound, the zone of inhibition ([17]; REF 4, 10 ug) was “+ (2-5 mm zone of inhibition around each disk was observed.)”.

In the case of O=C(N[C@H](CO)[C@H](O)c1ccc([N+](=O)[O-])cc1)C(Cl)Cl [CHL, Chloramphenicol, reference compound], the zone of inhibition at 30 µg/disc ([1]; strain 1, 30 ug) is reported as 5 to 10 mm, the zone of inhibition at 30 µg/disc ([2]; Qipengyuania aquimaris, S3, 24 h, strain 3, 30 ug) is reported as > 10 mm and the zone of inhibition at 30 µg/disc ([3]; strain 4, 30 ug) is reported as > 10 mm. For the same compound, the zone of inhibition at 30 µg/disc ([4]; strain 9, 30 ug) was > 10 mm, the zone of inhibition at 30 µg/disc ([5]; strain 10, 30 ug) was > 10 mm and the zone of inhibition at 30 µg/disc [6] was 5 to 10 mm. The zone of inhibition at 30 µg/disc ([7]; strain 16, 30 ug) was 5 to 10 mm, the zone of inhibition at 30 µg/disc ([8]; Gordonia terrae, S17, 24 h, strain 17, 30 ug) was > 10 mm and the zone of inhibition at 30 µg/disc ([9]; strain 18, 30 ug) was 5 to 10 mm. For the same compound, the zone of inhibition at 30 µg/disc ([10]; strain 27, 30 ug) was > 10 mm, the zone of inhibition at 30 µg/disc ([11]; strain 28, 30 ug) was > 10 mm and the zone of inhibition at 30 µg/disc ([12]; strain 29, 30 ug) was > 10 mm. For the same compound, the zone of inhibition at 30 µg/disc ([13]; strain 30, 30 ug) was 5 to 10 mm, the zone of inhibition ([14]; REF 1, 30 ug) was “++ (5-10 mm zone was observed.)” and the zone of inhibition ([15]; REF 2, 30 ug) was “++ (5-10 mm zone was observed.)”. The zone of inhibition ([16]; REF 3, 30 ug) was “++ (5-10 mm zone was observed.)” and the zone of inhibition ([17]; REF 4, 30 ug) was “++ (5-10 mm zone was observed.)”.
